Experiments:
[1] = test system: AGS gastric carcinoma cells [heterozygous G12D]; assay: Cancer cell line proliferation (CellTiter-Glo), AGS; assay type: cell-based; details: Homo sapiens, 72 hr treatment, read-out: AGS CTG (EC50)
Outline: (§1)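 4,000 cells/well; 72 hr pre-culture, 37° C./5% CO2. Cpd: 3-fold series, 20 μM–1.02 nM as prepared, 0.5% DMSO final; 72 hr exposure. Readout CellTiter-Glo; EC50 fit.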

[2] = test system: ASPC1 pancreatic adenocarcinoma cells [homozygous G12D]; assay: Cancer cell line proliferation (CellTiter-Glo), ASPC1; assay type: cell-based; details: Homo sapiens, ASPC1, 72 h, 72 hr treatment, read-out: ASPC-1 CTG (EC50)
Protocol: The following cancer cell lines were employed: AGS gastric carcinoma [heterozygous G12D](ATCC, CRL-1739); A-427 lung carcinoma [heterozygous G12D](ATCC, HTB-53); ASPC1 pancreatic adenocarcinoma [homozygous G12D](ATCC, CRL-1682) and SW1990 pancreatic adenocarcinoma [homozygous G12D](ATCC CRL-2172). Cell lines were cultured essentially according to ATCC recommendations.
AGS, A-427, ASPC1, SW1990, and GP2D cells were plated in 96-well tissue culture plates at 4,000 cells/well and incubated at 37° C./5% CO2 for 72 hr in 100 μl of media. 3-fold serial dilutions of each test compound were prepared ranging from 20 μM to 1.02 nM. Each cell line was then treated with test compounds at various concentrations with a final concentration of 0.5% DMSO/well, and then incubated at 37° C./5% CO2 for 72 hr. 100 µl of CellTiter-Glo® Reagent (Promega Corporation, Madison, WI) was added to each well and processed according manufacturer's protocol. Results were analyzed and EC50 values were calculated in GraphPad 7 software.

[3] = test system: A-427 lung carcinoma cells [heterozygous G12D]; assay: Cancer cell line proliferation (CellTiter-Glo), A-427; assay type: cell-based; details: Homo sapiens, A-427 cells, 72 hr treatment, read-out: A427 CTG (EC50)
Outline: as §1

KRAS(G12D)/SOS1 = target: T1, KRAS(G12D)/SOS1 (Homo sapiens, UniProt P01116, G12D); assay: KRAS(G12D)/SOS1 homogeneous time-resolved fluorescence (HTRF) assay; assay type: binding; details: absence of GTP; 4° C., 3 hr
T1 construct: purchased Cisbio 63ADK000CB17PEH
Outline: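 HTRF kit assay of compound-blocked KRAS(G12D)–SOS1 interaction, run without GTP. Compounds were tested as 3-fold dilutions from 20 µM to 1.02 nM and incubated with the reaction components for 3 hr at 4 °C, sealed. IC50 was taken as the concentration giving 50% of maximal inhibition.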

T1 sequence (P01116 1-188 isoform P01116-2 G12D): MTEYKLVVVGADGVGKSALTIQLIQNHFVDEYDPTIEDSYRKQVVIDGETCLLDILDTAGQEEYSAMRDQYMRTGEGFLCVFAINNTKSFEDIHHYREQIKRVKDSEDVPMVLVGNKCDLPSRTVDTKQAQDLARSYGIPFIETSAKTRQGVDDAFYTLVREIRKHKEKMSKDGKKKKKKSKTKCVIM

| Compound | EC50 [1] [nM] | EC50 [2] [nM] | EC50 [3] [nM] | IC50 (KRAS(G12D)/SOS1) [nM] |
| --- | --- | --- | --- | --- |
| C#Cc1cccc2cccc(-c3ncc4c(N5CC6CCC(C5)N6)nc(OC[C@@H]5CC[C@H](CN6CCN(C(=O)C7CCN(Cc8ccc(-n9c(C(=O)NCC)nnc9-c9cc(C(C)C)c(O)cc9O)cc8)CC7)CC6)N5C)nc4c3F)c12 [Compound 28] | < 100 | 100 to 1000 | < 100 | < 100 |
| C#Cc1cccc2cccc(-c3ncc4c(N5CC6CCC(C5)N6)nc(OC[C@@H]5CC[C@H](CN6CCN(Cc7ccc8c(c7)CN(C(=O)c7cc(C(C)C)c(O)cc7O)C8)CC6)N5C)nc4c3F)c12 [Compound 39] | 100 to 1000 | > 1000 | 100 to 1000 | < 100 |
| CC(C)c1cc(-c2nnc(O)n2-c2ccc(CN3CCN([C@H]4C[C@@H](COc5nc(N6CC7CCC(C6)N7)c6cnc(-c7cc(O)cc8ccccc78)c(F)c6n5)N(C)C4)CC3)cc2)c(O)cc1O [Compound 33] | 100 to 1000 | > 1000 | > 1000 | < 100 |
| Cc1cccc2cccc(-c3ncc4c(N5CC6CCC(C5)N6)nc(OC[C@@H]5C[C@H](N6CCC(C(=O)N7CCN(Cc8ccc(-n9c(O)nnc9-c9cc(C(C)C)c(O)cc9O)cc8)CC7)CC6)CN5C)nc4c3F)c12 [Compound 23] | 100 to 1000 | > 1000 | 100 to 1000 | 100 to 1000 |
| CCNC(=O)c1nnc(-c2cc(C(C)C)c(O)cc2O)n1-c1ccc(CN2CCN(C[C@H]3CC[C@@H](COc4nc(N5CC6CCC(C5)N6)c5cnc(-c6cc(O)cc7ccccc67)c(F)c5n4)N3C)CC2)cc1 [Compound 65] | < 100 | 100 to 1000 | < 100 | < 100 |
| CC(C)c1cc(-c2nnc(O)n2-c2ccc(CN3CCC(C(=O)C4CCN([C@H]5C[C@@H](COc6nc(N7CC8CCC(C7)N8)c7cnc(-c8cc(O)cc9ccccc89)c(F)c7n6)N(C)C5)CC4)CC3)cc2)c(O)cc1O [Compound 32] | 100 to 1000 | > 1000 | 100 to 1000 | < 100 |
| C#Cc1cccc2cc(O)cc(-c3ncc4c(N5CC6CCC(C5)N6)nc(OCC5(CN6CC[C@H](C(=O)N7CCN(Cc8ccc9c(c8)CN(C(=O)c8cc(C(C)C)c(O)cc8O)C9)CC7)C6)CC5)nc4c3F)c12 [Compound 139] | 100 to 1000 | > 1000 | 100 to 1000 | < 100 |
| CC(C)c1cc(C(=O)N2Cc3ccc(CN(C)[C@H]4CN5CCC[C@]5(COc5nc(N6CC7CCC(C6)N7)c6cnc(-c7cc(O)cc8ccccc78)c(F)c6n5)C4)cc3C2)c(O)cc1O [Compound 45] | 100 to 1000 | > 1000 | 100 to 1000 | 100 to 1000 |
| CC(C)c1cc(-c2nnc(O)n2-c2ccc(CN3CCN([C@H]4C[C@@H](COc5nc(N6CC7CCC(C6)N7)c6cnc(-c7cccc8ccccc78)c(F)c6n5)N(C)C4)CC3)cc2)c(O)cc1O [Compound 30] | 100 to 1000 | > 1000 | 100 to 1000 | > 1000 |
| C#Cc1cccc2cccc(-c3ncc4c(N5CC6CCC(C5)N6)nc(OCC5(CN6CCN(Cc7ccc8c(c7)CN(C(=O)c7cc(C(C)C)c(O)cc7O)C8)CC6)CC5)nc4c3F)c12 [Compound 11] | 100 to 1000 | 100 to 1000 | 100 to 1000 | < 100 |
| C#Cc1cccc2cccc(-c3ncc4c(N5CC6CCC(C5)N6)nc(OCCN5CCN(Cc6ccc(-n7c(O)nnc7-c7cc(C(C)C)c(O)cc7O)cc6)CC5)nc4c3F)c12 [Compound 13] | 100 to 1000 | > 1000 | 100 to 1000 | 100 to 1000 |
| C#Cc1cccc2cccc(-c3ncc4c(N5CC6CCC(C5)N6)nc(OCCN5CCN(C(=O)C6CCN(Cc7ccc(-n8c(C(=O)NCC)nnc8-c8cc(C(C)C)c(O)cc8O)cc7)CC6)CC5)nc4c3F)c12 [Compound 21] | < 100 | > 1000 | 100 to 1000 | 100 to 1000 |
| C#Cc1cccc2cccc(-c3ncc4c(N5CC6CCC(C5)N6)nc(OCC5CC[C@H](CN6CCN(C(=O)C7CCN(Cc8ccc(-n9c(O)nnc9-c9cc(C(C)C)c(O)cc9O)cc8)CC7)CC6)N5C)nc4c3F)c12 (some centres unmarked) [Compound 27] | < 100 | 100 to 1000 | < 100 | < 100 |
| Cc1cccc(-c2ncc3c(N4CC5CCC(C4)N5)nc(OC[C@@H]4C[C@H](N5CCN(Cc6ccc(-n7c(O)nnc7-c7cc(C(C)C)c(O)cc7O)cc6)CC5)CN4C)nc3c2F)c1C [Compound 52] | 100 to 1000 | > 1000 | 100 to 1000 | > 1000 |
| CC(C)c1cc(C(=O)N2Cc3ccc(CN4CCC(C(=O)N(C)[C@H]5CN6CCC[C@@]6(COc6nc(N7CC8CCC(C7)N8)c7cnc(-c8cc(O)cc9ccccc89)c(F)c7n6)C5)CC4)cc3C2)c(O)cc1O [Compound 49] | 100 to 1000 | > 1000 | 100 to 1000 | < 100 |
| CCNC(=O)c1nnc(-c2cc(C(C)C)c(O)cc2O)n1-c1ccc(CN2CCN([C@H]3C[C@@H](COc4nc(N5CC6CCC(C5)N6)c5cnc(-c6cccc(C)c6C)c(F)c5n4)N(C)C3)CC2)cc1 [Compound 53] | < 100 | 100 to 1000 | 100 to 1000 | < 100 |
| C#Cc1cccc2cccc(-c3ncc4c(N5CC6CCC(C5)N6)nc(OCC5(CN6CCN(C(=O)C7CCN(Cc8ccc(-n9c(O)nnc9-c9cc(C(C)C)c(O)cc9O)cc8)CC7)CC6)CC5)nc4c3F)c12 [Compound 18] | 100 to 1000 | > 1000 | 100 to 1000 | < 100 |
| C#Cc1cccc2cc(O)cc(-c3ncc4c(N5CC6CCC(C5)N6)nc(OCC5(CN6CCC(OC7CCN(C(=O)C8CCN(Cc9ccc%10c(c9)CN(C(=O)c9cc(C(C)C)c(O)cc9O)C%10)CC8)CC7)CC6)CC5)nc4c3F)c12 [Compound 141] | < 100 | 100 to 1000 | < 100 | < 100 |
| CC(C)c1cc(C(=O)N2Cc3ccc(CN4CCC(C(=O)N(C)[C@H]5CN6CCC[C@]6(COc6nc(N7CC8CCC(C7)N8)c7cnc(-c8cc(O)cc9ccccc89)c(F)c7n6)C5)CC4)cc3C2)c(O)cc1O [Compound 50] | 100 to 1000 | 100 to 1000 | 100 to 1000 | < 100 |
| C#Cc1cccc2cccc(-c3ncc4c(N5CC6CCC(C5)N6)nc(OC[C@@H]5CC[C@H](CN6CCN(Cc7ccc(-n8c(C(=O)NCC)nnc8-c8cc(C(C)C)c(O)cc8O)cc7)CC6)N5C)nc4c3F)c12 [Compound 16] | < 100 | 100 to 1000 | < 100 | < 100 |
| CCNC(=O)c1nnc(-c2cc(C(C)C)c(O)cc2O)n1-c1ccc(CN(C)[C@@H]2CN3CCC[C@@]3(COc3nc(N4CC5CCC(C4)N5)c4cnc(-c5cc(O)cc6ccccc56)c(F)c4n3)C2)cc1 [Compound 41] | 100 to 1000 | 100 to 1000 | > 1000 | < 100 |
| C#Cc1cccc2cc(O)cc(-c3ncc4c(N5CC6CNC(C6)C5)nc(OCC5(CN6CCN(CC7CCN(C(=O)C8CCN(Cc9ccc%10c(c9)CN(C(=O)c9cc(C(C)C)c(O)cc9O)C%10)CC8)CC7)CC6)CC5)nc4c3F)c12 (centres unmarked) [Compound 136] | 100 to 1000 | > 1000 | 100 to 1000 | 100 to 1000 |
| CCNC(=O)c1nnc(-c2cc(C(C)C)c(O)cc2O)n1-c1ccc(CN2CCN([C@H]3C[C@@H](COc4nc(N5CC6CNC(C6)C5)c5cnc(-c6cccc7cccc(C)c67)c(F)c5n4)N(C)C3)CC2)cc1 (some centres unmarked) [Compound 69] | 100 to 1000 | > 1000 | 100 to 1000 | > 1000 |

Reference: US20260070929A1, “METHODS AND COMPOSITIONS FOR MODULATING KRAS(G12D)” (Ranok Therapeutics (Hangzhou) Co. LTD., priority 2022, published 2026)
